In patent US11873319B2, “Cyclic di-nucleotide induction of type I interferon” (The Regents of the University of California, priority 2013, dated 2024):

Columns and labels:
[1] = system: variant STING alleles; assay: UV crosslinking binding assay of variant STING alleles to 32P-c-di-GMP; set-up: species or system mouse and human; details: lysates of transfected 293T cells, FIG. 3B
Description: FIG. 1, panels A-F show the variable responsiveness of human STING variants to cyclic-di-nucleotides maps to arginine 232. (Panel A) THP-1 cells were transduced with vectors encoding an shRNA targeting STING or a control shRNA. Cells were then stimulated with cyclic-di-GMP (cdG), dsDNA, cyclic-di-AMP (cdA), poly-inosine:cytosine (pI:C), or Sendai Virus, and induction of human interferon-β mRNA was assessed by quantitative reverse transcriptase PCR. (Panel B) Western blotting confirmed that knockdown of STING was effective. (Panel C) HEK293T cells were transfected with the indicated amounts of various mouse (m) or human (h) STING expression plasmid and then stimulated 6 h later by transfection with synthetic cdG (5 μM). […] STING activation was assessed by use of a co-transfected IFN-luciferase reporter construct. […] IFN induction was measured by qRT-PCR. ND, not detected. […] Binding was quantified by autoradiography. […]
(Panel A) 293T cells were transfected with the indicated alleles of mouse (m)STING or human (h)STING and were then stimulated with c-di-GMP (cdG). STING activity was detected by the induction of a co-transfected IFN-luciferase reporter construct and expressed as fold-induction over luciferase activity of unstimulated cells. (Panel B) Lysates of transfected 293T cells were UV crosslinked in the presence of α32P-c-di-GMP, resolved by SDS-PAGE, and then analyzed by autoradiography. […]

[2] = human clinical trials; cited from earlier work
[3] = molecular target: hSTING (Homo sapiens, UniProt Q86WV6); details: Conlon et al.; cited from earlier work
hSTING, sequence (Q86WV6 whole entry): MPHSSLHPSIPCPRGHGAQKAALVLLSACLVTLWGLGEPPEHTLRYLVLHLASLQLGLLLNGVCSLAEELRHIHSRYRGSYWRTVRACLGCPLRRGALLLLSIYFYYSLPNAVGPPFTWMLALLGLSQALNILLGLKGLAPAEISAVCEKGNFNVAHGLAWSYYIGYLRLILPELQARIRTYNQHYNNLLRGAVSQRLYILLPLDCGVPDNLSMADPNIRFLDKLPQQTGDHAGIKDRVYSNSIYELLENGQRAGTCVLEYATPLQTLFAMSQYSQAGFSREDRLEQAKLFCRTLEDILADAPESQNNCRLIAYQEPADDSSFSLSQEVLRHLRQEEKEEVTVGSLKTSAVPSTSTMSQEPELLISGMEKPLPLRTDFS

**Q.** Which “binding to variant STING alleles” value [1] does the source give for `Nc1nc2c(ncn2[C@@H]2O[C@@H]3COP(=O)(O)O[C@H]4[C@@H](O)[C@H](n5cnc6c(=O)[nH]c(N)nc65)O[C@@H]4COP(=O)(O)O[C@H]3[C@H]2O)c(=O)[nH]1` [cyclic-di-GMP] here?
**A.** The value was “bound”.

**Q.** Which results are given for `Cc1ccc2c(=O)c3cccc(CC(=O)O)c3oc2c1C` [DMXAA]?
**A.** efficacy in humans [2]: not found to be efficacious; stimulation of hSTING [3]: unable to stimulate
